pEC50: −log10 of the molar value. Where two headings read alike, the source gives them in different places.
Experiments:
[1] = tested on: Jurkat/NFATLuc.3C7 cells + Daudi cells; experiment: Jurkat/NFATLuc reporter bioassay with Daudi cells; type: cell-based; settings: highest RLU / lowest RLU
Method: (§1) Activity of the anti-BCMA×anti-CD3 bispecific antibodies were assessed in a Jurkat/NFATLuc reporter bioassay utilizing several cell lines with varying levels of BCMA surface expression. The Jurkat cells were engineered to express an NFAT-luciferase reporter (Jurkat/NFATLuc.3C7), and 50,000 Jurkat reporter cells were combined with 50,000 BCMA positive (Daudi, MM1-S, NCI-H929, OPM-2, RPMI-8226, MOLP-8, or Raji) or BCMA negative (HEK293) cells in Thermo Nunclon delta 96 well white microwell plates (Thermo Scientific, Cat #136102) in 50 ul of assay media (RPMI media with 10% FBS and 1% P/S/G). Three-fold serial dilutions of the BCMA×CD3 bispecific antibodies (mAb25441 D or mAb25442D), or a bivalent anti-BCMA antibody (mAb21581) were immediately added in 50 μL of assay buffer. The plates were gently agitated and incubated in a 37° C., 5% CO2 incubator for 4-6 hours. NFAT-Luciferase activity was determined using Promega One-Glo (Cat #E6130) and a Perkin Elmer Envision plate reader. RLU were plotted in GraphPad Prism using a four-parameter logistic equation over a 12-point response curve to calculate EC50 values. […] The signal to noise (S:N) is determined by taking the ratio of the highest RLU on the curve to the lowest.

[2] = tested on: Jurkat/NFATLuc.3C7 cells + RPMI-8226 cells; experiment: Jurkat/NFATLuc reporter bioassay with RPMI-8226 cells; type: cell-based; settings: highest RLU / lowest RLU
Method: as §1

[3] = tested on: primary multiple myeloma blast cells; experiment: FACS cytotoxicity assay, autologous T cell-mediated killing of primary multiple myeloma blast cells; type: cell-based, human; settings: for pEC50: read-out: MM Lysis EC50
Method: In order to monitor the specific killing of multiple myeloma cells by flow cytometry, bone marrow mononuclear cells (BMMC) from multiple myeloma patients were plated on human stromal cells (HS5) and rested overnight at 37 C. Separately, matching patient peripheral blood mononuclear cells (PBMC) were thawed and cultured in supplemented RPMI media at 1×10^6 cells/mL overnight at 37° C. in order to enrich for lymphocytes by depleting adherent cells. The next day, BMMC were co-incubated with adherent cell-depleted naïve PBMC on stromal cells (HS5) and a serial […] dilution of BCMA×CD3 bispecific or 1-arm CD3 isotype control (starting concentration 66.7 nM) at 37° C. Cells were removed from cell culture plates at day 3, 4 or 7 and analyzed by FACS. For the assessment of specificity of killing, multiple myeloma cells were gated as single, live, CD90 negative (to exclude stromal cells), CD2 negative, CD56 positive. CD45 was low on multiple myeloma cells in most samples except MM455. Percent of live target cells was reported for the calculation of adjusted survival as follows: Adjusted survival=(R1/R2)*100, where R1=% live target cells in the presence of antibody, and R2=% live target cells in the absence of test antibody.
T cells were gated as CD2 positive, CD56 negative and either CD4 or CD8 positive. T cell activation was reported as the percent of CD25+CD4 or CD8 T cells out of total CD4 or CD8 T cells.

[4] = tested on: BCMA-expressing MOLP-8 tumors; experiment: MOLP-8 + PBMC subcutaneous xenogenic tumor model, dose response (Example 13); type: in vivo, mouse
Method: To determine the in vivo efficacy of anti-BCMA×anti-CD3 bispecific antibodies (Abs), a xenogenic tumor study was performed. Immunodeficient NOD.Cg-Prkdc^scidIl2rg^tm1Wji/SzJ (NSG) mice were subcutaneously implanted with a mixture of 5×10^6 BCMA-expressing MOLP-8 human multiple myeloma tumor cells and 1×10^6 human peripheral blood mononuclear cells (PBMC) isolated from a normal, healthy donor. […] The mice were administered these Abs twice per week for a total of seven doses, and tumor growth was assessed over 56 days. While the BCMA^+ MOLP-8 tumors grew similarly in the vehicle- and CD3-binding control-treated mice, both BCMA×CD3 Abs that were tested prevented the growth of tumors in a dose-dependent manner in vivo.
Implantation and measurement of xenogenic tumors: NSG mice were subcutaneously implanted with a mixture of 5×10^6 BCMA-expressing MOLP-8 multiple myeloma cells and 1×10^6 PBMC derived from a normal, healthy donor. […] The mice were administered Abs twice per week for a total of seven doses. Tumor growth was measured by caliper twice per week for the duration of the experiment.
Calculation of xenogenic tumor growth and inhibition: In order to determine tumor volume by external caliper, the greatest longitudinal diameter (length in mm) and the greatest transverse diameter (width in mm) were determined. Tumor volumes based on caliper measurements were calculated by the formula: Volume (mm^3)=(length×width^2)/2.

## REGN5458: anti-BCMA×anti-CD3 bispecific antibody: BCMA HCVR of mAb21581 (SEQ 66), CD3 HCVR of mAb7221G (SEQ 90), common LCVR SEQ 82
[1]
  S:N: 43
[2]
  S:N: 55
[3]; sample MM2, E:T 1.4, 7 days
  pEC50: 9.13
[3]; sample MM2, newly diagnosed, E:T 1.4, 7 days
  % MM lysis at 66 nM: 88%
[3]; sample MM369, newly diagnosed, E:T 0.3, 3 days
  % MM lysis at 66 nM: 96%
[3]; sample MM453, E:T 2.4, 3 days
  pEC50: 10.00
[3]; sample MM453, newly diagnosed, E:T 2.4, 3 days
  % MM lysis at 66 nM: 82%
[3]; sample MM455, E:T 0.4, 3 days
  pEC50: 8.44
[3]; sample MM455, progression, treated, E:T 0.4, 3 days
  % MM lysis at 66 nM: 63%
[4]; 0.04 mg/kg
  Average Tumor Size (mm3) ± SEM on Day 3: 9.3 ± 2.4 mm3
  Average Tumor Size (mm3) ± SEM on Day 7: 18.3 ± 5.0 mm3
  Average Tumor Size (mm3) ± SEM on Day 10: 73.9 ± 25.7 mm3
  Average Tumor Size (mm3) ± SEM on Day 14: 255.4 ± 79.7 mm3
  Average Tumor Size (mm3) ± SEM on Day 17: 494.3 ± 144.3 mm3
  Average Tumor Size (mm3) ± SEM on Day 21: 1373.0 ± 366.6 mm3
  Average Tumor Size (mm3) ± SEM on Day 23: 1882.3 ± 551.5 mm3
  Average Tumor Size (mm3) ± SEM on Day 28: 2542.5 ± 613.3 mm3
  Average Tumor Size (mm3) ± SEM on Day 31: 2906.1 ± 532.6 mm3
  Average Tumor Size (mm3) ± SEM on Day 35: 3538.0 ± 0.0 mm3
[4]; 0.4 mg/kg
  Average Tumor Size (mm3) ± SEM on Day 3: 13.5 ± 1.5 mm3
  Average Tumor Size (mm3) ± SEM on Day 10: 0 ± 0 mm3
  Average Tumor Size (mm3) ± SEM on Day 14: 0 ± 0 mm3
  Average Tumor Size (mm3) ± SEM on Day 17: 1.7 ± 1.7 mm3
  Average Tumor Size (mm3) ± SEM on Day 21: 5.3 ± 5.3 mm3
  Average Tumor Size (mm3) ± SEM on Day 23: 9.7 ± 9.7 mm3
  Average Tumor Size (mm3) ± SEM on Day 28: 47.4 ± 47.4 mm3
  Average Tumor Size (mm3) ± SEM on Day 31: 104.7 ± 92.6 mm3
  Average Tumor Size (mm3) ± SEM on Day 35: 375.1 ± 307.5 mm3
  Average Tumor Size (mm3) ± SEM on Day 42: 968.8 ± 689.2 mm3
  Average Tumor Size (mm3) ± SEM on Day 56: 1742.4 ± 635.2 mm3
[4]; 4 mg/kg
  Average Tumor Size (mm3) ± SEM on Day 3: 12.5 ± 1.3 mm3
  Average Tumor Size (mm3) ± SEM on Day 7: 0 ± 0 mm3
  Average Tumor Size (mm3) ± SEM on Day 10: 0 ± 0 mm3
  Average Tumor Size (mm3) ± SEM on Day 14: 0 ± 0 mm3
  Average Tumor Size (mm3) ± SEM on Day 17: 14.5 ± 7.3 mm3
  Average Tumor Size (mm3) ± SEM on Day 21: 102.7 ± 66.2 mm3
  Average Tumor Size (mm3) ± SEM on Day 23: 193.3 ± 117.7 mm3
  Average Tumor Size (mm3) ± SEM on Day 28: 627.4 ± 318.1 mm3
  Average Tumor Size (mm3) ± SEM on Day 31: 1018.5 ± 498.3 mm3
  Average Tumor Size (mm3) ± SEM on Day 35: 1342.9 ± 629.6 mm3
  Average Tumor Size (mm3) ± SEM on Day 42: 2363.0 ± 890.2 mm3
  Average Tumor Size (mm3) ± SEM on Day 56: 3108.1 ± 3108.1 mm3
[4]; 4 mg/kg, Day 49
  Average Tumor Size (mm3) ± SEM on Day 49: 1683.5 ± 1683.5 mm3

From US20260008862A1, “Bispecific Anti-BCMA x Anti-CD3 Antibodies and Uses Thereof” (Regeneron Pharmaceuticals, Inc., priority 2018, published 2026)
